Assay results published in patent US20180116976A1, “METHODS AND COMPOSITIONS FOR UNWANTED OR ABNORMAL MUSCLE CONTRACTIONS” (Flex Pharma, Inc., priority 2015, published 2018).

Assays:
[1] = test system: human dorsal root ganglion neurons; assay: Calcium flux (ΔF/F) in human dorsal root ganglion neurons ex vivo, TRPV1/TRPA1 activation; assay type: cell-based; conditions: calcium-sensitive dye, FIG. 1
Protocol: Selective TRPV1 and TRPA1 activation responses were measured for exemplary compositions of the invention in human dorsal root ganglion neurons ex vivo and compared with TRPV1/TRPA1 co-activation responses. The degree of neuron activation was assessed by inward calcium flux using neurons preloaded with a calcium-sensitive fluorescent dye. Intracellular cellular calcium levels were then monitored by wide-field fluorescent microscopy. The change in intracellular fluorescence relative to baseline fluorescence (ΔF/F) was quantified, and the results are shown in FIG. 1.

[2] = test system: flexor hallucis brevis muscle; assay: Electrically induced flexor hallucis brevis cramp, surface EMG AUC over 140 seconds, additional beverage study (Example 3); assay type: in vivo, human; conditions: 29 mg, 140 second observation period; FIG. 10
Protocol: An additional study was carried out comparing exemplary compounds and combinations thereof as summarized in Table 3 below, each administered as a beverage formulation.
Cramp intensity was assessed by integrating the area under the curve (AUC) of a surface EMG signal over a 140 second observation period post electrical induction of a cramp in the flexor hallucis brevis muscle as previously described. […] The overall change between the pre-treatment baseline and mean vehicle control response was minimal.

[3] = test system: flexor hallucis brevis muscle; assay: Externally-induced cramping of the flexor hallucis brevis muscle, 6-shogaol orally disintegrating tablet (Example 4); assay type: in vivo, human; conditions: ODT
Protocol: The goal of this study was to assess the effectiveness of 6-shogaol formulated as an orally disintegrating tablet (ODT) in the prevention of externally-induced cramping of the flexor hallucis brevis muscle of the foot. The study was carried in two parts. The first part was an open label, placebo-controlled, 5-visit study evaluating vehicle (lactose and sucrose), 0.5 mg, 2.5 mg, 10/6.9 mg, and 40/33 mg 6-shogaol. The second part was a randomized, single-blind, placebo-controlled, 4-visit study evaluating vehicle (lactose and sucrose), 0.5 mg, 20/18.5 mg, and 60/55.5 mg 6-shogaol. Screening of subjects occurred within 28 days in a similar manner as described above in Example 1. Note that dosage values separated by a “/” indicate the nominal versus the actual doses as determined by Chromadex.
The collected EMG data was analyzed for the baseline adjusted integrated EMG (IEMG) level, also referred to as area under the curve (AUC), and cramp duration, as described in Example 1. FIG. 11 and FIG. 12 summarize the average change and ratio in AUC values for all subjects compared by administered treatment both parts of the study. […] The data in FIG. 15 and FIG. 16 further support these findings.

Row | Structure (SMILES) | neuron activation response, change in intracellular fluorescence relative to baseline (ΔF/F) [1] | decrease in cramp intensity compared to other treatments tested [2] | reduction in AUC compared to its study specific vehicle control [2] | cramp inhibition ([3]; 0.5 mg dosage level) | cramp inhibition ([3]; 2.6 mg dosage level) | cramp inhibition ([3]; 6.9 mg) | time over which cramp inhibition was sustained ([3]; 33 mg and 55 mg dosage levels) | cramp inhibition ([3]; 33 mg dosage level) | cramp inhibition ([3]; 55 mg dosage level)
1 | CCCCCC(O)CC(=O)CCc1ccc(O)c(OC)c1 (stereo not shown) [Treatment 6-gingerol, 6-gingerol] | synergistic response |  |  |  |  |  |  |  | 
2 | CCCCC/C=C/C(=O)CCc1ccc(O)c(OC)c1 [Treatment 6-shogaol, 6-shogaol] | synergistic response | greater decrease | 5 fold | no efficacy | no efficacy | roughly 40% | ≥ 8 h | 75% | 75%
